From patent US20020169101A1, “Treatment of sexual dysfunction” (priority 1999, published 2002)
Read-outs that look alike come from different tables or passages of the source.

How the values were obtained:
[1] = molecular target: T1, human NMB receptor (BB1) (Homo sapiens, UniProt P28336); experiment: BB1 binding assay ([125I][Tyr4]bombesin displacement, CHO-K1 membranes)
T1 construct: expressed in transfected cells; membranes prepared from the cells
How it was run: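 Competition against <0.1 nM [125I][Tyr4]bombesin, 60 min for the NMB receptor and 90 min for the GRP receptor, using homogenised membranes of human-receptor-expressing CHO-K1 cells in pH 7.4 Tris buffer. Bound label was filtered and gamma-counted, with 1 μM bombesin as nonspecific. Ki values came from IC50 via Cheng-Prusoff.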

[2] = molecular target: T2, human GRP receptor (BB2) (Homo sapiens, UniProt P30550); experiment: BB2 binding assay ([125I][Tyr4]bombesin displacement, CHO-K1 membranes)
T2 construct: expressed in transfected cells; membranes prepared from the cells
T2 sequence (P30550 whole entry): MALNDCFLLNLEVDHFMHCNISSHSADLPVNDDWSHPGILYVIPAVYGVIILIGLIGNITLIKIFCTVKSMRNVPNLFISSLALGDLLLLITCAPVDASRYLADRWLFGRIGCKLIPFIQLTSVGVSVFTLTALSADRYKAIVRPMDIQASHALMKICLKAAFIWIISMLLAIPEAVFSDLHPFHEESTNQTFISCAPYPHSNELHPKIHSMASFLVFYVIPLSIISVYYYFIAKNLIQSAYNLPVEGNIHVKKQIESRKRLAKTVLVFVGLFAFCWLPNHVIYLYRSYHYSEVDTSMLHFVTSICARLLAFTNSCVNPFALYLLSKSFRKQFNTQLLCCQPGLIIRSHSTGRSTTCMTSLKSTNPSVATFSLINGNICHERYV
Method: In the following experiments, measurement of BB1 and BB2 binding was as follows. CHO-K1 cells stably expressing cloned human NMB (for (BB1 assay) and GRP receptors (for BB2 assay) were routinely grown in Ham's F12 culture medium supplemented with 10% foetal calf serum and 2 mM glutamine. For binding experiments, cells were harvested by trypsinization, and stored frozen at −70° C. in Ham's F12 culture medium containing 5% DMSO until required. On the day of use, cells were thawed rapidly, diluted with an excess of culture medium, and centrifuged for 5 minutes at 2000 g. Cells were resuspended in 50 mM Tris-HCl assay buffer (pH 7.4 at 21° C., containing 0.02% BSA, 40 μg/mL bacitracin, 2 μg/mL chymostatin, 4 μg/mL leupeptin, and 2 μM phosphoramidon), counted, and polytronned (setting 5, 10 sec) before centrifuging for 10 minutes at 28,000 g. The final pellet was resuspended in assay buffer to a final cell concentration of 1.5×10^5/mL. For binding assays, […] aliquots of membranes were incubated with [^125I][Tyr^4]bombesin (<0.1 nM) in the presence and absence of test compounds (final assay volume 250 μL) for 60 minutes and 90 minutes for NMB and GRP receptors, respectively. Nonspecific binding was defined by 1 μM bombesin. Assays were terminated by rapid filtration under vacuum onto Whatman GF/C filters presoaked in 0.2% PEI for >2 hours, and washed 50 mM Tris-HCl (pH 6.9 at 21° C.; 6×1 mL). Radioactivity bound was determined using a gamma counter.
All competition data was analysed using nonlinear regression utilizing iterative curve-plotting procedures in Prism® (GraphPad Software Inc., San Diego, USA). IC50 values were corrected to Ki values using the Cheng-Prusoff equation (Cheng Y., Prusoff W. H., Biochem. Pharmacol. 22: 3099-3108, 1973). obtained are listed in Table 1.

[3] = Table 3, N-acyl derivatives of Intermediate III-7
[4] = second 'TABLE 4', N-terminal urethane derivatives of Intermediate III-7
[5] = binding studies to the bombesin receptors

T1 sequence (P28336 whole entry): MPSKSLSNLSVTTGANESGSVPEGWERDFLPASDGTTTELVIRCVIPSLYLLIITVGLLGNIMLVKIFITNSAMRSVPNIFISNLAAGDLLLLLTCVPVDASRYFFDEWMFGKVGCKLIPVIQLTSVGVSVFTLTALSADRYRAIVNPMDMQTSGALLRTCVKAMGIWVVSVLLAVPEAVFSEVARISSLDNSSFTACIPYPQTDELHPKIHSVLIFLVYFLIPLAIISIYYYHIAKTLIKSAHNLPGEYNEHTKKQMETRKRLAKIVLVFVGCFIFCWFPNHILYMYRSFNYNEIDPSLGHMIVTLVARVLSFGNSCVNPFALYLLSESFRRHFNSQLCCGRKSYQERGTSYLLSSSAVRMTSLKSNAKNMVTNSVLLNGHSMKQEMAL

Compound	IC50 [1, 3]	IC50 [2, 3]	further results
C[C@@](Cc1c[nH]c2ccccc12)(NC(=O)c1ccsc1)C(=O)NCC1(c2ccccn2)CCCCC1 [Example 65, Thiophene-3-carboxylic acid {(S)-2-(1H-indol-3-yl)-1-methyl-1-[(1-pyridin-2-yl-cyclohexylmethyl)-carbamoyl]-ethyl}-amide]	2200 nM	> 10000 nM	
C[C@@](Cc1c[nH]c2ccccc12)(NC(=O)OCc1cccc(Cl)c1Cl)C(=O)NCC1(c2ccccn2)CCCCC1 [Example 109, {(S)-2-(1H-Indol-3-yl)-1-methyl-1-[(1-pyridin-2-yl-cyclohexylmethyl)-carbamoyl]-ethyl}-carbamic acid 2,3-dichloro-benzyl ester]			IC50 [1, 4]: 152 nM; IC50 [2, 4]: > 10000 nM
COc1ccc(COC(=O)N[C@@](C)(Cc2c[nH]c3ccccc23)C(=O)NCC2(c3ccccn3)CCCCC2)cc1OC [Example 88, {(S)-2-(1H-Indol-3-yl)-1-methyl-1-[(1-pyridin-2-yl-cyclohexylmethyl)-carbamoyl]-ethyl}-carbamic acid 3,4-dimethoxy-benzyl ester]			IC50 [1, 4]: 1760 nM; IC50 [2, 4]: > 10000 nM
C[C@@](Cc1c[nH]c2ccccc12)(NC(=O)OCc1ccc([N+](=O)[O-])cc1)C(=O)NCC1(c2ccccn2)CCCCC1 [Example 96, {(S)-2-(1H-Indol-3-yl)-1-methyl-1-[(1-pyridin-2-yl-cyclohexylmethyl)-carbamoyl]-ethyl}-carbamic acid 4-nitro-benzyl ester]			IC50 [1, 4]: 41 nM; IC50 [2, 4]: 463 nM
C[C@@](Cc1c[nH]c2ccccc12)(NC(=O)c1cccc(S(C)(=O)=O)c1)C(=O)NCC1(c2ccccn2)CCCCC1 [Example 41, N—{(S)-2-(1H-Indol-3-yl)-1-methyl-1-[(1-pyridin-2-yl-cyclohexylmethyl)-carbamoyl]-ethyl}-3-methanesulfonyl-benzamide]	3050 nM	> 10000 nM	
Cc1ccc(S(=O)(=O)N[C@@](C)(Cc2c[nH]c3ccccc23)C(=O)NCC2(c3ccccn3)CCCCC2)cc1Cl [Example 158]			IC50 [1]: 299 nM; IC50 [2]: 3940 nM
Cc1ccc(C(=O)N[C@@](C)(Cc2c[nH]c3ccccc23)C(=O)NCC2(c3ccccn3)CCCCC2)s1 [Example 75, 5-Methyl-thiophene-2-carboxylic acid {(S)-2-(1H-indol-3-yl)-1-methyl-1-[(1-pyridin-2-yl-cyclohexylmethyl)-carbamoyl]-ethyl}-amide]	1660 nM	> 10000 nM	
COc1cccc(S(=O)(=O)N[C@@](C)(Cc2c[nH]c3ccccc23)C(=O)NCC2(c3ccccn3)CCCCC2)c1 [Example 145]			IC50 [1]: 295 nM; IC50 [2]: 3690 nM
C[C@@](Cc1c[nH]c2ccccc12)(NC(=O)OCc1ccc2ccccc2c1)C(=O)NCC1(c2ccccn2)CCCCC1 [Example 89, {(S)-2-(1H-Indol-3-yl)-1-methyl-1-[(1-pyridin-2-yl-cyclohexylmethyl)-carbamoyl]-ethyl}-carbamic acid naphthalen-2-ylmethyl ester]			IC50 [1, 4]: 1000 nM; IC50 [2, 4]: > 10000 nM
C[C@@](Cc1c[nH]c2ccccc12)(NCCc1ccccc1)C(=O)NCC1(c2ccccn2)CCCCC1 [Example 25, (S)-3-(1H-Indol-3-yl)-2-methyl-2-phenylethylamino-N-(1-pyridin-2-yl-cyclohexylmethyl)-propionamide]			Ki ([1]; Table 1, human NMB receptor binding affinity, Ki from IC50 by Cheng-Prusoff, read-out: NMB Ki): 616 nM; Ki ([2]; Table 1, human GRP receptor binding affinity, Ki from IC50 by Cheng-Prusoff, read-out: GRP Kj): 2620 nM
C[C@@](Cc1c[nH]c2ccccc12)(NS(=O)(=O)c1cccc(Cl)c1)C(=O)NCC1(c2ccccn2)CCCCC1 [Example 130]			IC50 [1]: 331 nM; IC50 [2]: 2690 nM
COc1ccccc1COC(=O)N[C@@](C)(Cc1c[nH]c2ccccc12)C(=O)NCC1(c2ccccn2)CCCCC1 [Example 100, {(S)-2-(1H-Indol-3-yl)-1-methyl-1-[(1-pyridin-2-yl-cyclohexylmethyl)-carbamoyl]-ethyl}-carbamic acid 2-methoxy-benzyl ester]			IC50 [1, 4]: 818 nM; IC50 [2, 4]: > 10000 nM
C[C@@](Cc1c[nH]c2ccccc12)(NC(=O)c1ccc(Cl)cc1)C(=O)NCC1(c2ccccn2)CCCCC1 [Example 34, 4-Chloro-N—{(S)-2-(1H-indol-3-yl)-1-methyl-1-[(1-pyridin-2-yl-cyclohexyl-methyl)-carbamoyl]-ethyl}-benzamide]	1350 nM	> 10000 nM	
COc1cccc(C(=O)N[C@@](C)(Cc2c[nH]c3ccccc23)C(=O)NCC2(c3ccccn3)CCCCC2)c1 [Example 40, N—{(S)-2-(1H-Indol-3-yl)-1-methyl-1-[(1-pyridin-2-yl-cyclohexylmethyl)-carbamoyl]-ethyl}-3-methoxy-benzamide]	2860 nM	> 10000 nM	
C[C@@](Cc1c[nH]c2ccccc12)(NS(=O)(=O)c1ccc(F)cc1)C(=O)NCC1(c2ccccn2)CCCCC1 [Example 122]			IC50 [1]: 560 nM; IC50 [2]: 4160 nM
(S)-3-(1H-Indol-3-yl)-2-methyl-N-(1-pyridin-2-yl-cyclohexylmethyl)-2-(2-p-tolyl-ethanoylamino)-propionamide [Example 51]	944 nM	> 10000 nM	
C[C@@](Cc1c[nH]c2ccccc12)(NS(=O)(=O)c1cccc2cccnc12)C(=O)NCC1(c2ccccn2)CCCCC1 [Example 120, (S)-3-(1H-indol-3-yl)-2-methyl-N-(1-pyridin-2-yl-cyclohexylmethyl)-2-(quinoline-8-sulfonylamino)-propionamide]			IC50 [1]: 108 nM; IC50 [2]: > 10000 nM
C[C@@](Cc1c[nH]c2ccccc12)(NC(=O)c1ccc2[nH]ccc2c1)C(=O)NCC1(c2ccccn2)CCCCC1 [Example 67, 1H-Indole-5-carboxylic acid {(S)-2-(1H-indol-3-yl)-1-methyl-1-[(1-pyridin-2-yl-cyclohexylmethyl)-carbamoyl]-ethyl}-amide]	1880 nM	> 10000 nM	
Cc1cccc(CC(=O)N[C@@](C)(Cc2c[nH]c3ccccc23)C(=O)NCC2(c3ccccn3)CCCCC2)c1 [Example 54, (S)-3-(1H-Indol-3-yl)-2-methyl-N-(1-pyridin-2-yl-cyclohexylmethyl)-2-(2-m-tolyl-ethanoylamino)-propionamide]	817 nM	> 10000 nM	
COc1ccc(C2(CNC(=O)[C@](C)(Cc3c[nH]c4ccccc34)NC(=O)c3cc4ccccc4[nH]3)CCCCC2)nc1 [Example 86, 1H-Indole-2-carboxylic Acid ((S)-2-(1H-indol-3-yl)-1-{[1-(5-methoxy-pyridin-2-yl)-cyclohexylmethyl]-carbamoyl}-1-methyl-ethyl)-amide]			IC50 [1, 5]: 11 nM; IC50 [2, 5]: 119 nM

More lines, main results first:

IC50 [1, 3]	IC50 [2, 3]	Compound	further results
3130 nM	> 10000 nM	C[C@@](Cc1c[nH]c2ccccc12)(NC(=O)Cc1ccc(O)cc1)C(=O)NCC1(c2ccccn2)CCCCC1 [Example 52, (S)-2-[2-(4-Hydroxy-phenyl)-ethanoylamino]-3-(1H-indol-3-yl)-2-methyl-N-(1-pyridin-2-yl-cyclohexylmethyl)-propionamide]	
878 nM	1550 nM	C[C@@](Cc1c[nH]c2ccccc12)(NC(=O)Cc1ccccc1F)C(=O)NCC1(c2ccccn2)CCCCC1 [Example 55, (S)-2-[2-(2-Fluoro-phenyl)-ethanoylamino]-3-(1H-indol-3-yl)-2-methyl-N-(1-pyridin-2-yl-cyclohexylmethyl)-propionamide]	
4480 nM	> 10000 nM	C[C@@](Cc1c[nH]c2ccccc12)(NC(=O)c1cccc2cccnc12)C(=O)NCC1(c2ccccn2)CCCCC1 [Example 79, Quinoline-8-carboxylic acid {(S)-2-(1H-indol-3-yl)-1-methyl-1-[(1-pyridin-2-yl-cyclohexylmethyl)-carbamoyl]-ethyl}-amide]	
1230 nM	> 10000 nM	Cn1c(C(=O)N[C@@](C)(Cc2c[nH]c3ccccc23)C(=O)NCC2(c3ccccn3)CCCCC2)cc2ccccc21 [Example 70, 1-Methyl-1H-indole-2-carboxylic acid {(S)-2-(1H-indol-3-yl)-1-methyl-1-[(1-pyridin-2-yl-cyclohexylmethyl)-carbamoyl]-ethyl}-amide]	
289 nM	527 nM	C[C@@](Cc1c[nH]c2ccccc12)(NC(=O)c1cc2ccccc2[nH]1)C(=O)NCC1(c2ccccn2)CCCCC1 [Example 61, 1H-Indole-2-carboxylic acid {(S)-2-(1H-indol-3-yl)-1-methyl-1-[(1-pyridin-2-yl-cyclohexylmethyl)-carbamoyl]-ethyl}-amide]	
